Source: BindingDB's records for doi:10.1016/j.bmcl.2006.07.014 (Glaxosmithkline, 2006)
pKi: −log10 of the molar value.

Molecular target: T1, Dimer of Gag-Pol polyprotein [501-599,Q508K,L534I,L564I,C568A,C596A] (Human immunodeficiency virus 1, UniProt P03367, C568A/C596A/L534I/L564I/Q508K)
T1 construct: 501-599
Test: Protease Inhibition Assay
Details: pH 6.4; 25 °C
Protocol: The Ki values were determined using fluorogenic substrate, 2-(aminobenzoyl)-Thr-Ile-Nle-Phe(p-NO2)-Gln-ArgNH2. A standard curve relating changes in fluorescent intensity to changes in concentration of product was used to convert fluorescent changes into molar velocities. The amount of cleavage was determined by HPLC.

| SMILES | pKi |
| --- | --- |
| COc1ccc(S(=O)(=O)N(CC2CCCC2)C[C@@H](O)CN2C(=O)C3(CCOCC3)OC[C@@H]2Cc2ccccc2)cc1 [(2S)-3-[(3S)-3-benzyl-5-oxo-1,9-dioxa-4-azaspiro[5.5]undecan-4-yl]-N-(cyclopentylmethyl)-2-hydroxy-N-(4-methoxyphenyl)propane-1-sulfonamido] | 7.64 |
| COc1ccc(S(=O)(=O)N(CC2CCCC2)C[C@@H](O)CN2C(=O)COC[C@@H]2Cc2ccccc2)cc1 | 6.00 |
